Data as given in patent US11739120B2, “Water soluble salts of lipidated peptides and methods for preparing and using the same” (Bridge Biotherapeutics, Inc., priority 2018, dated 2023).
Residues, ends and D or L forms follow the SMILES beside them. *: point of attachment. Palmitoyl = CCCCCCCCCCCCCCCC(=O)*

Assays:
Type in all cases: physicochemical
[1] = Approximate solubility of Compound I-1 (amorphous) in different solvents (manual dilution, visual observation); settings: ambient laboratory temperature
Description: In this Example, approximate solubility tests of Compound I-1 (amorphous) were conducted in the different solvents at ambient laboratory temperature. The solubility was also tested by manual dilution combined with visual observation. In particular, a known amount of Compound I-1 was weighed and added to a vial. A known amount of solvent was gradually added to the vial with constant stirring. The solvent addition was kept at a very slow rate to minimize any excess solvent beyond what is needed to fully dissolve the solids. In order to cross-check the solubility, a small amount of Compound I-1 was added to the vial to confirm that the solution became turbid.

[2] = Solubility of amorphous, Form A and Form E of Compound I-1 in water (shaken at 25° C., HPLC); settings: for Final pH: mother liquor
Description: The solubility of amorphous, Form A or E of Compound I-1 in water was further studied. Specifically, about 250 mg Compound I-1 in amorphous, Forms A and E were each suspended in a 2 mL HPLC vial with 0.9 mL of water. Each suspension was then shaken at 25° C. under 1000 rpm. The suspensions were analyzed at 1 h and 24 h. In particular, at either the 1 h or 24 h time point, the slurries were centrifuged and analyzed by HPLC. The pH values of the mother liquors were measured, and the residues were characterized by XRPD.

[3] = Stabilities of amorphous Compound I-1 (ICH guideline, XRPD)
Description: Stabilities of amorphous Compound I-1 were also conducted according to ICH guideline.

[4] = Storage stability of formulations of amorphous Compound I-1; settings: powder from capsules; 6 month at 25° C./60% RH or 40° C./75% RH
Description: This enteric coated capsule formulation was tested for stability and dissolution. […] Thus, this formulation can be storage stable.
This capsule formulation was also tested for stability and dissolution. […] Thus, Formulation B is also storage stable.
This capsule formulation was also tested for stability and dissolution.
This tablet formulation was also tested for stability and dissolution.

Structure (SMILES): CCCCCCCCCCCCCCCC(=O)N1CCC[C@H]1C(=O)N1CCC[C@H]1C(=O)NCC(=O)N[C@@H](Cc1ccc(O)cc1)C(=O)[O-].[Na+] [Compound I-1 (Amorphous), sodium palmitoyl-L-prolyl-L-prolylglycyl-L-tyrosinate] (Palmitoyl-PPGY-OH)
- solubility ([1]; 1,4-Dioxane): 33.3 to 50 mg/mL
- solubility ([1]; 1-butanol): 50 to 100 mg/mL
- solubility ([1]; 2-Methyl Tetrahydrofuran): > 100 mg/mL
- solubility ([1]; Acetone): < 1 mg/mL
- solubility ([1]; Acetone:H2O (1:2)): 50 to 100 mg/mL
- solubility ([1]; Acetonitrile): < 1 mg/mL
- solubility ([1]; Acetonitrile:H2O (1:1)): 50 to 100 mg/mL
- solubility ([1]; Cyclohexane): < 1 mg/mL
- solubility ([1]; DMF): 20 to 33.3 mg/mL
- solubility ([1]; DMSO): 50 to 100 mg/mL
- solubility ([1]; Ethanol): 50 to 100 mg/mL
- solubility ([1]; Ethanol:H2O (1:1)): 50 to 100 mg/mL
- solubility ([1]; Ethanol:H2O (3:1)): 50 to 100 mg/mL
- solubility ([1]; Ethyl acetate): < 1 mg/mL
- solubility ([1]; Heptane): < 1 mg/mL
- solubility ([1]; Isopropyl acetate): < 1 mg/mL
- solubility ([1]; Isopropyl alcohol): 50 to 100 mg/mL
- solubility ([1]; Methanol): > 100 mg/mL
- solubility ([1]; Methanol:H2O (1:1)): > 100 mg/mL
- solubility ([1]; Methanol:H2O (3:1)): > 100 mg/mL
- solubility ([1]; Methyl ethyl ketone): 3.3 to 5 mg/mL
- solubility ([1]; Methyl isobutyl ketone): 1.2 to 1.4 mg/mL
- solubility ([1]; Methyl t-butyl ether): < 1 mg/mL
- solubility ([1]; N-methyl pyrrolidone): 50 to 100 mg/mL
- solubility ([1]; Tetrahydrofuran): > 100 mg/mL
- solubility ([1]; Tetrahydrofuran:H2O (1:1)): 50 to 100 mg/mL
- solubility ([1]; Toluene): 50 to 100 mg/mL
- solubility ([1]; Water): > 100 mg/mL
- Final pH ([2]; water, 25° C., time point 1 hour): 9.05
- Final pH ([2]; water, 25° C., time point 24 hours): 9.03
- XRPD pattern (wet) ([2]; residue of the suspension in water, 25° C., time point 24 hours): Mostly D
- Solubility at 25° C. ([2]; water, time point 1 hour): 239.1 mg/mL
- solubility at 1 h ([2]; water, time point 1 hour): > 200 mg/mL
- Solubility at 25° C. ([2]; water, time point 24 hours): 180.1 mg/mL
- solubility at 24 h ([2]; water, time point 24 hours): ~180 mg/mL
- form transformation (XRPD) ([3]; all tested conditions (40° C./75% RH with protection from moisture, 60° C., ambient) except high humidity): no form transformation
- form transformation (XRPD) ([3]; high humidity condition for 1 week): could be transferred into Form A
- crystalline conversion (X-ray diffractograms, FIG. 12) [4]: no crystalline conversion was observed
